Like-named read-outs stand apart in the source and are kept apart here.
Experiments:
[1] = target: T1, Cav1.3 L-type Ca channels (Rattus norvegicus, UniProt P27732); test: FLIPR Fluo-8 calcium assay, Cav1.3 channel inhibition in HEK293 cells; assay type: cell-based
T1 construct: expressed in transfected cells; host or cells: HEK293

[2] = target: Cav1.2 L-type Ca channels (Oryctolagus cuniculus, UniProt P15381); test: FLIPR Fluo-8 calcium assay, Cav1.2 channel inhibition in HEK293 cells
[3] = third library, FLIPR, HEK293, value (±SD), read-out: IC50 (μM) Cav1.3
[4] = IC50 (μM) Cav1.2, third library, FLIPR, HEK293, value (±SD)
[5] = IC50 (μM) CaV1.3, first library, FLIPR, HEK293, value (±SD)
[6] = first library, ratio of IC50 Cav1.2 to Cav1.3
[7] = IC50 (μM) CaV1.2, first library, FLIPR, HEK293, value (±SD)
[8] = IC50 (μM) Cav1.3, second library, FLIPR, HEK293, value (±SD)
[9] = second library, ratio of IC50 Cav1.2 to Cav1.3
[10] = IC50 (μM) Cav1.2, second library, FLIPR, HEK293, value (±SD)
[11] = IC50 (μM) Cav1.3, third library, FLIPR, HEK293, value (±SD)
[12] = third library, ratio of IC50 Cav1.2 to Cav1.3
[13] = first library, FLIPR, HEK293, value (±SD), read-out: IC50 (μM) CaV1.3

Sequence of Cav1.2 L-type Ca channels (P15381 whole entry): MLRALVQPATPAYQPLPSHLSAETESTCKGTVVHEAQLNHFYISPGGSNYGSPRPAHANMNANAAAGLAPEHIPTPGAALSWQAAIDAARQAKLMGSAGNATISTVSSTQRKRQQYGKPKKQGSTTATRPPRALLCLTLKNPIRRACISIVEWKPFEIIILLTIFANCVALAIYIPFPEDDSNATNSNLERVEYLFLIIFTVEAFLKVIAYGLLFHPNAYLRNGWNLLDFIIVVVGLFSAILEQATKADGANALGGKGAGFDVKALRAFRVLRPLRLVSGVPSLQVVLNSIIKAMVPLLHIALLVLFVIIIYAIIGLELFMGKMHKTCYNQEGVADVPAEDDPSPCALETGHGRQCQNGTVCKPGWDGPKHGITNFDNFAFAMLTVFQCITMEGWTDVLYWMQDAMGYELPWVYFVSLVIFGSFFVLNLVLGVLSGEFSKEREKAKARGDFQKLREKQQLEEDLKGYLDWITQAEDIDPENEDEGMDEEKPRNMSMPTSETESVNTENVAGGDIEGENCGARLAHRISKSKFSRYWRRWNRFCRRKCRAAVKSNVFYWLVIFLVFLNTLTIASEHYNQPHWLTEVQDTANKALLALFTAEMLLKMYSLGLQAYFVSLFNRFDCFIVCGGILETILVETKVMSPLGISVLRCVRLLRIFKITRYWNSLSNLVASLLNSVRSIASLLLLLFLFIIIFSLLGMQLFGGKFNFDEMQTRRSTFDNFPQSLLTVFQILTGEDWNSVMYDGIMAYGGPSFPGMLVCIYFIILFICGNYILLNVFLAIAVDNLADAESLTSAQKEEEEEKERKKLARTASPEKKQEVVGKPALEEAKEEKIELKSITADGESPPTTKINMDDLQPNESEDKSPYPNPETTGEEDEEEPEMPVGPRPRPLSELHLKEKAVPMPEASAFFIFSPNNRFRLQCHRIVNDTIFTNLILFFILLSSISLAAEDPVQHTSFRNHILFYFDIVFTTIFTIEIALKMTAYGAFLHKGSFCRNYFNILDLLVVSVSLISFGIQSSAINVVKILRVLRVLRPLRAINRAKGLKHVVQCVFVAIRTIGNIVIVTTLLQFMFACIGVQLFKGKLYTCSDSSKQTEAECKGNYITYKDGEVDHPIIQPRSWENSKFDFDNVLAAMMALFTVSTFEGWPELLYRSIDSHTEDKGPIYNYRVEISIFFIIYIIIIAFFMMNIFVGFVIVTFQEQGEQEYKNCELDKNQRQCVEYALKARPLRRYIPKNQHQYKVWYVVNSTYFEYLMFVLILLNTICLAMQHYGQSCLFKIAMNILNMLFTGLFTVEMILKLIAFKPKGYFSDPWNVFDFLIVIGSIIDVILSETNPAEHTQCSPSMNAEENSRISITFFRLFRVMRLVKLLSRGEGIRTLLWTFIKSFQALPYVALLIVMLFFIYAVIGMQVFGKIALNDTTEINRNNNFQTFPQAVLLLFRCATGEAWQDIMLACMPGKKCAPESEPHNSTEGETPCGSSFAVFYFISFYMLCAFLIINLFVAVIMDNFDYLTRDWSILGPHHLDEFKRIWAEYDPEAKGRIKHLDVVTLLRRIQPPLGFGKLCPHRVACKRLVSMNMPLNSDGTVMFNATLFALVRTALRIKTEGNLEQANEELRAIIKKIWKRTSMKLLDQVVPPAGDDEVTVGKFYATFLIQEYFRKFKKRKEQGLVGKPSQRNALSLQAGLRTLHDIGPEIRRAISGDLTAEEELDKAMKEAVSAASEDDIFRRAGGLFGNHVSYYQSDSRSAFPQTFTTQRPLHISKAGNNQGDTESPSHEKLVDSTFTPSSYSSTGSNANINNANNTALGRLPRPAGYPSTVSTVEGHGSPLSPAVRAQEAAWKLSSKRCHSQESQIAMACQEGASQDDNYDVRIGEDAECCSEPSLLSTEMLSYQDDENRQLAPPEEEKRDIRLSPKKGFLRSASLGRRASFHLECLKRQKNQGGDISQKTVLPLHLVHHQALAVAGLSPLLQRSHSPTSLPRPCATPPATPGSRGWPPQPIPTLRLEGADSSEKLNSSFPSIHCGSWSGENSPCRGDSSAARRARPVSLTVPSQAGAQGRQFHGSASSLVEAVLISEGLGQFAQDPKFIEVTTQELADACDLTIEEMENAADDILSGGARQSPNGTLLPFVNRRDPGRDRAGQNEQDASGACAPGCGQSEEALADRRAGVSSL
Sequence of Cav1.2 L-type Ca channels (P54284 whole entry partner): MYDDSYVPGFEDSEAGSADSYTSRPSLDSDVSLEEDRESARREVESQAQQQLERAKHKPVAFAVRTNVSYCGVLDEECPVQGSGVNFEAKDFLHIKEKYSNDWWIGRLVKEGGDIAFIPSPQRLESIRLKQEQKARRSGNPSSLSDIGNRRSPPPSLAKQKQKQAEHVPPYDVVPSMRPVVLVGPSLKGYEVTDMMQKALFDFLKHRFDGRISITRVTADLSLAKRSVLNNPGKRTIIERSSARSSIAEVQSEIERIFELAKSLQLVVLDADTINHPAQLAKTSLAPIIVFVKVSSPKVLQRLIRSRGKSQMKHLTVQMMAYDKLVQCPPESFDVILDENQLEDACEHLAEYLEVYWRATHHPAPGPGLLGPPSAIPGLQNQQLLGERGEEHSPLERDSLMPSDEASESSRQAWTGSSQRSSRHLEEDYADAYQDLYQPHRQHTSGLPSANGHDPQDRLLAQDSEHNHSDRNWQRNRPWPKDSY
Sequence of Cav1.2 L-type Ca channels (P54289 25-956 partner limits assumed): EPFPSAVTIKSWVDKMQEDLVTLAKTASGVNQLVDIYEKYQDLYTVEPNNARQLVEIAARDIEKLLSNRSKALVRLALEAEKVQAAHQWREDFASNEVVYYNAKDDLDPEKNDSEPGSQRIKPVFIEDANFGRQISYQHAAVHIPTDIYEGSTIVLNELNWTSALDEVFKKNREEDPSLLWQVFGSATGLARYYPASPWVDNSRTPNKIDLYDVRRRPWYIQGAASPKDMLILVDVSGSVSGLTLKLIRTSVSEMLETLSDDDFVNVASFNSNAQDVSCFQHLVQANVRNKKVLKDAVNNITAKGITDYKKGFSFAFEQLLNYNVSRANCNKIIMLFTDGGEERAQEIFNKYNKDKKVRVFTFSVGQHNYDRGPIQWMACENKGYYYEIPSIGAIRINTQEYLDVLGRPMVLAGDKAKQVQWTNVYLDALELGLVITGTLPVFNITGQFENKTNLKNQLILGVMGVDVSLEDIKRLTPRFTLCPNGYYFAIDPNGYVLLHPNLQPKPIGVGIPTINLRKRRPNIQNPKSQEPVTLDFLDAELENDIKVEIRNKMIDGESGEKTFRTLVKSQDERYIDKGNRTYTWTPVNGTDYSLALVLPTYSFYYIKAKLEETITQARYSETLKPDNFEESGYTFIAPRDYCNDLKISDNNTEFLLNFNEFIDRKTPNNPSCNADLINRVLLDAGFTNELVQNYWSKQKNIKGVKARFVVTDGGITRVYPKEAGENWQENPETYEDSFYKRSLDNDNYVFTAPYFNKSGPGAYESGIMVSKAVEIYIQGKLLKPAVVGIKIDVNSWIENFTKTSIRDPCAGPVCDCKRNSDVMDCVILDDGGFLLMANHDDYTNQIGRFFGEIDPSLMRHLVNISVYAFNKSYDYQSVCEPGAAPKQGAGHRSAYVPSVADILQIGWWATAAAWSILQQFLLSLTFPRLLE
Sequence of Cav1.2 L-type Ca channels (P54289 957-1103 partner limits assumed): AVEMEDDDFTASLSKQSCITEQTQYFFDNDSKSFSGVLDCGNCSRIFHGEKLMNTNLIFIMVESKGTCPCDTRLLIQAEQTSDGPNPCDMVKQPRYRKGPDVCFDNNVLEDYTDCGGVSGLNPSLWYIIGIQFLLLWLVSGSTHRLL

| Structure (SMILES) | IC50 [1, 5] | Selectivity [1, 6] | IC50 [2, 7] | also measured |
| --- | --- | --- | --- | --- |
| O=C1CC(=O)N(C2CC3CCC2C3)C(=O)N1CCc1ccc(Cl)cc1 (racemic) [Compound 10, N-(4-chlorophenethyl)-N′-(+)-endo-norbornyl-pyrimidine-2,4,6-(1H,3H,5H)-trione] | – | – | – | IC50 ([1]; Table 4, 12 concentration points (0.1 nM~100 μM) in duplicate, read-out: IC50 (μM) Cav1.3): 0.6 µM; IC50 ([1]; read-out: IC50 with Cav1.3): 0.6 µM; IC50 [1, 3]: 0.6 µM; IC50 ([2]; IC50 (μM) Cav1.2, Table 4, 12 concentration points (0.1 nM~100 μM) in duplicate): 13.5 µM; IC50 [2, 4]: 13.5 µM |
| O=C1CC(=O)N(CCc2cccc([N+](=O)[O-])c2)C(=O)N1CCCCc1ccccc1 [Compound 47] | 3 µM | 1.0 | 3 µM | – |
| O=C1CC(=O)N(C2CCCCC2)C(=O)N1CCc1ccc(Br)cc1 [Compound 77] | – | – | – | IC50 [1, 8]: 0.8 µM; Selectivity [1, 9]: 26.4; IC50 [2, 10]: 21.3 µM |
| O=C1CC(=O)N(C2CCc3ccccc32)C(=O)N1C1CCCCC1 (stereo not shown) [Compound 85] | – | – | – | IC50 [1, 8]: 16.4 µM; Selectivity [1, 9]: 1.2; IC50 [2, 10]: 19.2 µM |
| O=C1CC(=O)N(CCc2cccc(F)c2)C(=O)N1CCc1ccc(Cl)cc1 [Compound 19] | 1.9 µM | 1.5 | 2.8 µM | – |
| O=C1CC(=O)N(C2C3CC4CC(C3)CC2C4)C(=O)N1CCc1cccc(Cl)c1 (stereo not shown) [Compound 117] | – | – | – | IC50 [1, 11]: 1.6 µM; Selectivity [1, 12]: 2.0; IC50 [2, 4]: 3.1 µM |
| O=C1CC(=O)N(Cc2ccc(Cl)cc2)C(=O)N1CCc1ccc(Cl)cc1 [Compound 25] | 2.1 µM | 0.9 | 1.9 µM | – |
| Cc1ccc(CCN2C(=O)CC(=O)N(CCc3ccc(Cl)cc3)C2=O)cc1 [Compound 17] | 1.1 µM | 6.7 | 7.1 µM | – |
| O=C1CC(=O)N(C2CCCc3ccccc32)C(=O)N1CCCCc1ccccc1 (stereo not shown) [Compound 50] | 36.5 µM | 0.9 | 34.1 µM | – |
| O=C1CC(=O)N(C2CCC2)C(=O)N1CCc1cccc(Cl)c1 [Compound 99] | – | – | – | IC50 [1, 11]: 2.7 µM; Selectivity [1, 12]: 5.4; IC50 [2]: 14.6 µM |
| O=C1CC(=O)N(C2CCCC2)C(=O)N1CCc1ccc(Cl)cc1 [Compound 29] | 1.4 µM | 16.4 | 22.4 µM | – |
| N#Cc1cccc(CCN2C(=O)CC(=O)N(C3CCCCC3)C2=O)c1 [Compound 79] | – | – | – | IC50 [1, 8]: 10.5 µM; Selectivity [1, 9]: 3.5; IC50 [2, 10]: 36.5 µM |
| O=C1CC(=O)N(CCc2ccc(Br)cc2)C(=O)N1CCc1ccc(Cl)cc1 [Compound 16] | 1.6 µM | 1.3 | 2.1 µM | – |
| O=C1CC(=O)N(Cc2cccc([N+](=O)[O-])c2)C(=O)N1CCc1ccc(Cl)cc1 [Compound 22] | 21.2 µM | 0.4 | 9.5 µM | – |
| O=C1CC(=O)N(C2CCc3ccccc32)C(=O)N1CCc1ccc(Cl)cc1 (stereo not shown) [Compound 32] | 8.4 µM | 1.7 | 14.5 µM | – |
| CCC(C)N1C(=O)CC(=O)N(CCc2cccc(Cl)c2)C1=O (stereo not shown) [Compound 107] | – | – | – | IC50 [1, 11]: 1.9 µM; Selectivity [1, 12]: 23.6; IC50 [2]: 45.4 µM |
| CCC(C)N1C(=O)CC(=O)N(CCc2cccc(C(F)(F)F)c2)C1=O (stereo not shown) [Compound 108] | – | – | – | IC50 [1, 11]: 3.4 µM; Selectivity [1, 12]: 10.5; IC50 [2, 4]: 35.9 µM |
| COc1ccc(CN2C(=O)CC(=O)N(C3CCCCC3)C2=O)cc1 [Compound 81] | – | – | – | Selectivity [1]: 2.1; IC50 [1, 8]: 32.2 µM; IC50 [2, 10]: 67.8 µM |
| CC(CN1C(=O)CC(=O)N(CCCCc2ccccc2)C1=O)c1ccccc1 (stereo not shown) [Compound 44] | 2.1 µM | 7.7 | 15.8 µM | – |
| Cc1ccc(CCN2C(=O)CC(=O)N(C3CCCCC3)C2=O)cc1 [Compound 74] | – | – | – | IC50 [1, 8]: 1.8 µM; Selectivity [1, 9]: 3.4; IC50 [2, 10]: 6.1 µM |
| O=C1CC(=O)N(C2CCCCC2)C(=O)N1CCc1ccc(F)cc1 [Compound 68] | 9.4 µM | 17.7 | 166 µM | – |

| Structure (SMILES) | IC50 [1, 5] | Selectivity [1, 6] | IC50 [2, 7] | also measured |
| --- | --- | --- | --- | --- |
| O=C1CC(=O)N(CCCc2ccccc2)C(=O)N1CCCCc1ccccc1 [Compound 49] | – | 2.0 | 2.6 µM | IC50 [1, 13]: 1.3 µM |
| O=C1CC(=O)N(CC2CCCCC2)C(=O)N1CCc1cccc(C(F)(F)F)c1 [Compound 111] | – | – | – | IC50 [1, 11]: 0.9 µM; Selectivity [1, 12]: 22.1; IC50 [2, 4]: 20.4 µM |
| O=C1CC(=O)N(C2CCC2)C(=O)N1CCc1ccc(Cl)cc1 [Compound 100] | – | – | – | IC50 [1, 3]: 1.8 µM; Selectivity [1, 12]: 2.8; IC50 [2, 4]: 4.9 µM |
| O=C1CC(=O)N(CCc2ccc([N+](=O)[O-])cc2)C(=O)N1CCc1ccc(Cl)cc1 [Compound 23] | – | 0.8 | – | IC50 [1, 13]: 3.4 µM; IC50 [2]: 2.7 µM |
| O=C1CC(=O)N(C2CCCCC2)C(=O)N1CCCc1ccccc1 [Compound 84] | – | – | – | IC50 [1, 8]: 6.3 µM; Selectivity [1, 9]: 4.9; IC50 [2, 10]: 30.5 µM |
| Cc1cccc(CCN2C(=O)CC(=O)N(C3CCCC3)C2=O)c1 [Compound 97] | – | – | – | IC50 [1, 11]: 1.1 µM; Selectivity [1, 12]: 49.1; IC50 [2, 4]: 52.1 µM |
| O=C1CC(=O)N(C2CCCCC2)C(=O)N1CCOc1ccccc1 [Compound 88] | – | – | – | IC50 [1, 8]: 9.5 µM; Selectivity [1, 9]: 1.2; IC50 [2, 10]: 11.8 µM |
| O=C1CC(=O)N(CCc2cccc(C(F)(F)F)c2)C(=O)N1CCCCc1ccccc1 [Compound 43] | 0.5 µM | 2.3 | 1.1 µM | – |
| O=C1CC(=O)N(Cc2ccc(Cl)cc2)C(=O)N1CCc1ccc2ccccc2c1 [Compound 66] | 1.7 µM | – | – | IC50 [2]: 2.4 µM |
| O=C1CC(=O)N(CCc2ccc3ccccc3c2)C(=O)N1CCc1ccc(F)cc1 [Compound 64] | 1.8 µM | 2.1 | 3.8 µM | – |
| Cc1cccc(CCN2C(=O)CC(=O)N(C3CCCCCC3)C2=O)c1 [Compound 93] | – | – | – | IC50 [1, 11]: 13.2 µM; Selectivity [1, 12]: 2.3; IC50 [2, 4]: 30.7 µM |
| CC(Cc1ccccc1)N1C(=O)CC(=O)N(C2CCCC2)C1=O (racemic) [Compound 95] | – | – | – | IC50 [1, 11]: 0.7 µM; Selectivity [1, 12]: 23.0; IC50 [2, 4]: 16 µM |
| O=C1CC(=O)N(CCc2ccc3ccccc3c2)C(=O)N1CCCc1ccccc1 [Compound 61] | 1 µM | 1.3 | 1.2 µM | – |
| O=C1CC(=O)N(Cc2cccc([N+](=O)[O-])c2)C(=O)N1CCc1ccc2ccccc2c1 [Compound 65] | 4.8 µM | 1.0 | 5 µM | – |
| O=C1CC(=O)N(Cc2ccc(Cl)cc2)C(=O)N1CCCCc1ccccc1 [Compound 48] | 2.1 µM | 3.7 | 7.7 µM | – |
| COC(=O)[C@H](C)N1C(=O)CC(=O)N(CCc2ccc(Cl)cc2)C1=O [Compound 35] | 77.7 µM | 1.1 | 88.2 µM | – |
| O=C1CC(=O)N(CCc2cccc(Cl)c2)C(=O)N1CCCCc1ccccc1 [Compound 38] | 1.3 µM | 4.9 | 6.2 µM | – |
| O=C1CC(=O)N(C23CC4CC(CC(C4)C2)C3)C(=O)N1CCc1ccc(Cl)cc1 [Compound 114] | – | – | – | IC50 [1, 11]: 3.2 µM; Selectivity [1, 12]: 0.8; IC50 [2, 4]: 2.6 µM |
| O=C1CC(=O)N(CCc2cccc(F)c2)C(=O)N1CCCCc1ccccc1 [Compound 42] | 1.6 µM | 3.3 | 5.3 µM | – |
| O=C1CC(=O)N(CCc2ccc(Cl)c(Cl)c2)C(=O)N1CCCc1ccccc1 [Compound 54] | 4.3 µM | 1.6 | 6.9 µM | – |
| Cc1ccc(CCN2C(=O)CC(=O)N(C3CCCCCC3)C2=O)cc1 [Compound 94] | – | – | – | IC50 [1, 11]: 0.9 µM; Selectivity [1, 12]: 16.0; IC50 [2, 4]: 14.9 µM |

Reference: patent publication US20210186970A1, “SELECTIVE CALCIUM CHANNEL ANTAGONISTS” (Northwestern University, priority 2011, published 2021)
